Experiment [1] concerns AU-RNA (poly A-poly U; rArU-RNA) (RNA, polymer) A/U. In words: UV thermal melting, 260 nm. To be noted: Na+ (sodium cacodylate, I = 0.05 M); sodium cacodylate pH 7.0; r[compound]/[polynucleotide] = 0.1, polynucleotide 25 µM (phosphate); per base.
Experiment [2] has the same test system. In words: CD titration, Scatchard. To be noted: Na+ (sodium cacodylate, I = 0.05 M); sodium cacodylate pH 7.0, 25 °C; Scatchard n fixed 0.2 per phosphate; per base.

For `c1cc2ccc3ccc(CNCCCNCCN(CCNCCCNCc4ccc5ccc6cccc7ccc4c5c67)CCNCCCNCc4ccc5ccc6cccc7ccc4c5c67)c4ccc(c1)c2c34`, the “∆Tm” value in experiment [1] amounted to 3.7 ± 0.5 °C. Further, the logKs in experiment [2] is 6.5 log(M^-1).

Values taken from PMC10536304 (2023).
